Results from ChEMBL document CHEMBL6182895, “Synthesis, in vitro and in vivo evaluation, and computational modeling analysis of thioxothiazolidine derivatives as highly potent and selective α-amylase inhibitors” (Eur J Med Chem, 2025).
The source made the active and inactive calls. The calls are words filed in the database; no cut-off is given here.

Tests used:
Homo sapiens [1] = organism: Homo sapiens; assay: Inhibition of alpha-amylase (unknown origin) using starch as substrate preincubated for 10 mins followed by substrate addition and measured after 10 mins relative to control; set-up: concentration or dose not given beside the values; conditions: time 20.0 min
Homo sapiens [2] = organism: Homo sapiens; assay: Inhibition of alpha-glucosidase (unknown origin) using p-NPG as substrate preincubated for 5 mins followed by substrate addition and measured after 30 mins relative to control; set-up: concentration or dose not given beside the values; conditions: time 35.0 min
[3] = Inhibition of alpha-amylase (unknown origin); set-up: species or system Homo sapiens
[4] = Inhibition of alpha-amylase (unknown origin) using starch as substrate preincubated for 10 mins followed by substrate addition and measured after 10 mins; set-up: species or system Homo sapiens
Homo sapiens [5] = organism: Homo sapiens; assay: Potency index, ratio of acarbose IC50 to test compound IC50 for inhibition of alpha-amylase (unknown origin) using starch as substrate preincubated for 10 mins followed by substrate addition and measured after 10 mins; conditions: time 20.0 min
Homo sapiens [6] = organism: Homo sapiens; assay: Mixed type of inhibition of alpha-amylase (unknown origin) assessed as change in Km and Vmax of substrate using starch as substrate and measured after 10 mins by Lineweaver-burk plot analysis
Rattus norvegicus [7] = assay: Antidiabetic activity against streptozotocin-induced diabetic Wistar rat model assessed as blood glucose level at 10 mg/kg, po and measured on day 1 (reference value: 324.7 +/-6.24 mg/dl); type: functional; conditions: time 1 day
Rattus norvegicus [8] = assay: Antidiabetic activity against streptozotocin-induced diabetic Wistar rat model assessed as blood glucose level at 10 mg/kg, po and measured on day 7 (reference value: 378.8 +/-6.48 mg/dl); type: functional; conditions: time 7 day
Rattus norvegicus [9] = assay: Antidiabetic activity against streptozotocin-induced diabetic Wistar rat model assessed as blood glucose level at 10 mg/kg, po and measured on day 14 (reference value: 388.3 +/-6.34 mg/dl); type: functional; conditions: time 14 day
Rattus norvegicus [10] = assay: Antidiabetic activity against streptozotocin-induced diabetic Wistar rat model assessed as restoration of metabolic homeostasis by measuring serum urea level at 10 mg/kg, po measured on day 1 to 14 (reference value: 124.68 +/-2.16 mg/dl); type: functional; conditions: time 1-14 day
Rattus norvegicus [11] = assay: Antidiabetic activity against streptozotocin-induced diabetic Wistar rat model assessed as restoration of metabolic homeostasis by measuring serum creatinine level at 10 mg/kg, po measured on day 1 to 14 (reference value: 116.81 +/-9.26 uM); type: functional; conditions: time 1-14 day
Rattus norvegicus [12] = assay: Antidiabetic activity against streptozotocin-induced diabetic Wistar rat model assessed as restoration of metabolic homeostasis by measuring decrease in […] level in serum at 10 mg/kg, po measured on day 1 to 14; type: functional, organism-based; conditions: time 1-14 day
Rattus norvegicus [13] = assay: Antidiabetic activity against streptozotocin-induced diabetic Wistar rat model assessed as restoration of metabolic homeostasis by measuring AST level in serum at 10 mg/kg, po measured on day 1 to 14 (reference value: 133.49 +/-2.52 IU/L); type: functional; conditions: time 1-14 day
Rattus norvegicus [14] = assay: Antidiabetic activity against streptozotocin-induced diabetic Wistar rat model assessed as restoration of metabolic homeostasis by measuring ALT level in serum at 10 mg/kg, po measured on day 1 to 14 (reference value: 35.2 +/-1.58 IU/L); type: functional; conditions: time 1-14 day
Rattus norvegicus [15] = assay: Antidiabetic activity against streptozotocin-induced diabetic Wistar rat model assessed as restoration of metabolic homeostasis by measuring ALP level in serum at 10 mg/kg, po measured on day 1 to 14 (reference value: 195.13 +/-1.08 IU/L); type: functional; conditions: time 1-14 day
Rattus norvegicus [16] = assay: Protection against diabetes-induced organ dysfunction in streptozotocin-induced diabetic Wistar rat model assessed as reduction in liver damage by measuring improved hepatic sinusoid congestion and healthier hepatocytes with reduced lipid droplets at 10 mg/kg, po and measured on day 14 by Hematoxylin-Eosin staining based analysis; type: functional, organism-based; conditions: time 14.0 day
Rattus norvegicus [17] = assay: Protection against diabetes-induced organ dysfunction in streptozotocin-induced diabetic Wistar rat model assessed as reduction in kidney damage by measuring kidney with structural improvement and reduced retraction, preserved glomeruli and less hemorrhages at 10 mg/kg, po and measured on day 14 by Hematoxylin-Eosin staining based analysis; type: functional, organism-based; conditions: time 14.0 day
Rattus norvegicus [18] = assay: Protection against diabetes-induced organ dysfunction in streptozotocin-induced diabetic Wistar rat model assessed as reduction in pancreas damage by measuring well preserved islet structure at 10 mg/kg, po and measured on day 14 by Hematoxylin-Eosin staining based analysis; type: functional, organism-based; conditions: time 14.0 day

For `O=C(CN1C(=O)/C(=C/c2csc3ccccc23)SC1=S)NC12CC3CC(CC(C3)C1)C2`, the inhibition (Homo sapiens [1]) was 32.5% and the inhibition (Homo sapiens [2]) was 6.53%.

In the case of `CC(C)CNC(=O)CN1C(=O)/C(=C/c2csc3ccccc23)SC1=S`, the inhibition (Homo sapiens [1]) is reported as 29.6% and the inhibition (Homo sapiens [2]) is reported as 8.62%.

In the case of `O=C(Cc1c[nH]c2ccccc12)NNS(=O)(=O)c1ccccc1F`, the IC50 [3] is reported as 1.8 µM.

`O=C(CN1C(=O)/C(=C/c2nc3ccccc3s2)SC1=S)NC12CC3CC(CC(C3)C1)C2` showed an inhibition (Homo sapiens [1]) of 29.6% and an inhibition (Homo sapiens [2]) of 6.63%.

For `O=C(CN1C(=O)/C(=C/c2nccs2)SC1=S)Nc1cccnn1`, the inhibition (Homo sapiens [1]) was 10.1% and the inhibition (Homo sapiens [2]) was 10.1%.

Molecule `O=C(CN1C(=O)/C(=C/c2csc3ccccc23)SC1=S)Nc1c(F)cc(Br)cc1Cl` has an inhibition (Homo sapiens [1]) of 68.2%, an IC50 [4] of 154 µM and an inhibition (Homo sapiens [2]) of 10.2%.

Molecule `Cn1ccnc1/C=C1\SC(=S)N(CC(=O)Nc2ccc(Br)cc2F)C1=O` has an inhibition (Homo sapiens [1]) of 10.2% and an inhibition (Homo sapiens [2]) of 8.36%.

`O=C(CN1C(=O)/C(=C/c2csc3ccccc23)SC1=S)Nc1cccnn1` showed an inhibition (Homo sapiens [1]) of 37.8% and an inhibition (Homo sapiens [2]) of 7.87%.

Molecule `Fc1ccc(NC(=S)Nc2nnc(-c3ccc4cn[nH]c4c3)s2)cc1` has an IC50 [3] of 9.9 µM.

`CC(C)CNC(=O)CN1C(=O)/C(=C/c2nccn2C)SC1=S` showed an inhibition (Homo sapiens [1]) of 23.3% and an inhibition (Homo sapiens [2]) of 4.88%.

With `Cn1ccnc1/C=C1\SC(=S)N(CC(=O)Nc2c(F)cc(Br)cc2Cl)C1=O` the inhibition (Homo sapiens [1]) was 38.2% and the inhibition (Homo sapiens [2]) was 8.25%.

`Cn1ccnc1/C=C1\SC(=S)N(CC(=O)Nc2ccc(C(F)(F)F)cc2)C1=O` showed an inhibition (Homo sapiens [1]) of 80.4%, an IC50 [4] of 0.71 µM and an inhibition (Homo sapiens [2]) of 6.43%. For the same molecule, the Ratio IC50 (Homo sapiens [5]) was 1340, the inhibition (Homo sapiens [6]) was “Active” and the Activity (Rattus norvegicus [7]) was 328.3 mg/dL. The Activity (Rattus norvegicus [8]) was 149.7 mg/dL, the Activity (Rattus norvegicus [9]) was 106.2 mg/dL and the Activity (Rattus norvegicus [10]) was 57.31 mg/dL. The Activity (Rattus norvegicus [11]) was 82.14 µM, the Activity (Rattus norvegicus [12]) was “Active” and the Activity (Rattus norvegicus [13]) was 41.13 IU/L. The Activity (Rattus norvegicus [14]) was 12.04 IU/L, the Activity (Rattus norvegicus [15]) was 138.41 IU/L and the Activity (Rattus norvegicus [16]) was “Active”. For the same molecule, the Activity (Rattus norvegicus [17]) was “Active” and the Activity (Rattus norvegicus [18]) was “Active”.

Work on `O=C(CN1C(=O)/C(=C/c2nc3ccccc3s2)SC1=S)Nc1ccc(Br)cc1F` yielded an inhibition (Homo sapiens [1]) of 69.2%, an IC50 [4] of 128 µM and an inhibition (Homo sapiens [2]) of 7.65%.

Work on `O=C(CN1C(=O)/C(=C/c2nc3ccccc3s2)SC1=S)Nc1c(F)cc(Br)cc1Cl` yielded an inhibition (Homo sapiens [1]) of 69.8%, an IC50 [4] of 167 µM and an inhibition (Homo sapiens [2]) of 8.37%.

For `Cn1ccnc1/C=C1\SC(=S)N(CC(=O)NC23CC4CC(CC(C4)C2)C3)C1=O`, the inhibition (Homo sapiens [1]) was 15.2% and the inhibition (Homo sapiens [2]) was 8.22%.

With `O=C(CN1C(=O)/C(=C/c2nc3ccccc3s2)SC1=S)Nc1cccnn1` the inhibition (Homo sapiens [1]) was 37.4% and the inhibition (Homo sapiens [2]) was 7.42%.

`O=C(CN1C(=O)/C(=C/c2nccs2)SC1=S)Nc1c(F)cc(F)cc1Br` gave an inhibition (Homo sapiens [1]) of 42.8% and an inhibition (Homo sapiens [2]) of 4.85%.

With `Oc1ccc(-c2nnc(CSc3nc4ccccc4[nH]3)o2)c(O)c1` the IC50 [3] was 6.2 µM.
